Measured values reported in patent US20220185811A1, “FGFR4 KINASE INHIBITOR AND PREPARATION METHOD THEREFOR AND USE THEREOF” (SHOUYAO HOLDINGS (BEIJING) CO., LTD., priority 2019, published 2022).
Counter-ions that a name gives are not always drawn.

How the values were obtained:
FGFR-4 kinase = FGFR-4 kinase (Homo sapiens, UniProt P22455); assay: FGFR-4 kinase activity, homogeneous time-resolved fluorescence (HTRF) method; type: biochemical; conditions: Table 1; ATP 25 μM, FGFR-4 kinase 1 nM; read-out: FGFR4 IC50
Description: 1. In vitro determination of the protein activity of compounds: The FGFR-4 kinase activity detection platform was established by the homogeneous time-resolved fluorescence (HTRF) method, and the activity of the compound was determined. 1000 μM compounds were subjected to 3-fold gradient dilution in 100% DMSO 11 times (12 concentrations in total), 4 μL diluent from each concentration was added to 96 μL of reaction buffer (50 mM HEPES, pH 7.4, 5 mM MnCl2, 0.1 mM NaVO3, 0.001% Tween-20, 0.01% BAS, 1 mM DTT) and mixed well, as a 4* compound (final concentration of 0.017 nM-1000 nM) for later use. 2 * FGFR-4 kinase (final concentration of 1 nM) was formulated using reaction buffer and 4*substrate (ATP+TK peptide) (TK peptide, HTRF® KinEASETM-TK, purchased from Cisbio, TK peptide, final concentration of 1 μM, ATP final concentration of 25 μ M) was formulated using reaction buffer. 2.5 μL of 4*compound and then 5 μL of 2 * FGFR-4 kinase were added to a 384-well plate (OptiPlate-384, purchased from PerkinElmer), the mixture was mixed by centrifugation, and 2.5 μL of 4 * substrate mixture was added to start the reaction (total reaction volume of 10 µL). The 384-well plate was placed in an incubator 23° C. and stirred for 60 min before the reaction was stopped by the addition of 5 μL of Eu^3+cryptate-labeled anti-phosphotyrosine antibody (TRF® KinEASE™-TK, purchased from Cisbio) and 5 μL of Streptavidin-XL-665 (HTRF® KinEASE™-TK, purchased from Cisbio). After incubation in the incubator for 1 h, fluorescence values (excitation at 320 nm, detecting emitted light at 665 nm and 620 nm, and a ratio of the two as enzyme activity) were read on Envision (purchased from PerkinElmer). The enzyme activity of each compound was measured at 12 concentrations, and the ICso value of the compound was calculated using GraphPad Prism 5.0 software.
The FGFR-4 kinase activity detection platform was established by homogeneous time-resolved fluorescence (HTRF) method, and the activity of compound was determined. 1000 μM compounds were subjected to 3-fold gradient dilution in 100% DMSO 11 times (12 concentrations in total), 4 μL of diluent from each concentration was added to 96 μL of reaction buffer (50 mM HEPES, pH 7.4, 5 mM MnCl2, 0.1 mM NaVO3, 0.001% Tween-20, 0.01% BAS, 1 mM DTT) and mixed well, as a 4* compound (final concentration of 0.017 nM-1000 nM) for later use. 2 * FGFR-4 kinase (final concentration of 1 nM) was formulated using reaction buffer and 4*substrate (ATP+TK peptide)(TK peptide, HTRF® KinEASE™-TK, purchased from Cisbio, TK peptide, final concentration of 1 μM, ATP final concentration of 25 μM) was formulated using reaction buffer. 2.5 μL of 4 * compound and then 5 μL of 2 * FGFR-4 kinase were added to a 384-well plate (OptiPlate-384, purchased from PerkinElmer), the mixture was mixed by centrifugation, and 2.5 μL of 4 * substrate mixture was added to start the reaction (total reaction volume of 10 μL). The 384-well plate was placed in an incubator 23° C. and stirred for 60 min before the reaction was stopped by the addition of 5 μL of Eu^3+cryptate-labled anti-phosphotyrosine antibody (TRF® KinEASE™-TK, purchased from Cisbio) and 5 μL of Streptavidin-XL-665 (HTRF® KinEASE™-TK, purchased from Cisbio). After incubation in the incubator for 1 h, fluorescence values (excitation at 320 nm, detecting emitted light at 665 nm and 620 nm, and a ratio of the two as enzyme activity) were read on Envision (purchased from PerkinElmer). The enzyme activity of each compopund was measured at 12 concentrations, and the ICso value of the compound was calculated using GraphPad prism 5.0 software.

[1] = system: Human hepatoma cells Hep3b; assay: Cell proliferation inhibition, Cell Titer-Glo; type: cell-based; conditions: Hep3B, 72 h, Table 1, 3 days incubation
Description: 2. Determination of cell proliferation activity of compounds:
Cell Titer-Glo ® detection reagent from Promega was used to establish the suspension cell proliferation inhibition screening method. Human hepatoma cells Hep3b (Xiehe Cell Research Center) were cultured in 25 cm^2 or 75 cm^2 plastic tissue culture flasks (Corning®) filled with MEM (Gibco®) medium supplemented with 10% fetal bovine serum (Hyclone®) under 37° C., 95% air and 5% CO2, and subcultured 2-3 times a week.
(§1) Hep3b cells were seeded in a 96-well cell culture plate (Corning®) at a density of 3×10^3 cells/well, […], and cultured under 37° C., 95% air, and 5% CO2. After 24 h the test compound was added: 10 mM compounds (dissolved in DMSO) were subjected to 3-fold gradient dilution in DMSO , […] of diluent from each concentration was added to […] of serum-free medium, and finally […] of compound diluted in the medium was added to the plate seeded with cells. The final concentration of DMSO in the cell culture medium was 0.1% and the final concentration of the test compound was 0.3 nM-[…]. The above cells were incubated for 3 days under 37° C.
After 3 days, the cell viability assay was performed by the Cell Titer-Glo (Promega) kit, and finally, the inhibitory concentration 50% of the compound on cell proliferation, i.e. the IC 50 value, was calculated by the GraphPad Prism 5.0 program.
as §1, with “DMSO,” for “DMSO ,”, “finally,” for “finally”, “of” for “of the”
After 3 days, the cell viability assay was performed by the Cell Titer-Glo (Promega) kit, and finally the inhibitory concentration 50% of the compound on cell proliferation, i.e. the IC 50 value, was calculated by the GraphPad Prism 5.0 program.

[2] = Pharmacokinetics in male SD rats, single intragastric administration; type: in vivo; conditions: rat, po, 5 mg/kg suspension, plasma, first PK table
Description: (§2) Male SD rats (Beijing Vital River Laboratory Animal Technology Co., Ltd.) were divided into groups of 3 rats each. The rats were subjected to 5 mg/kg suspension of the test sample by single intragastric administration, respectively. Animals were fasted overnight prior to the experiment from 10 h before dosing to 4 h after dosing. Blood was collected 0.25, 0.5, 1, 2, 4, 6, 8, and 24 h after administration. After isoflurane anesthesia using a small animal anesthesia machine, 0.3 mL of whole blood samples was collected from the fundus venous plexus, placed in a heparin anticoagulant tube, and were centrifuged at 4° C., 4000 rpm for 5 min, plasma was transferred to the centrifuge tube, and stored at −80° C. until analysis. Samples in the plasma were extracted using protein precipitation and the extracts were analyzed by LC/MS/MS.
as §2, with “taken through” for “collected from”, “-80°” for “−80°”

FGFR-4 kinase, sequence (P22455 22-802): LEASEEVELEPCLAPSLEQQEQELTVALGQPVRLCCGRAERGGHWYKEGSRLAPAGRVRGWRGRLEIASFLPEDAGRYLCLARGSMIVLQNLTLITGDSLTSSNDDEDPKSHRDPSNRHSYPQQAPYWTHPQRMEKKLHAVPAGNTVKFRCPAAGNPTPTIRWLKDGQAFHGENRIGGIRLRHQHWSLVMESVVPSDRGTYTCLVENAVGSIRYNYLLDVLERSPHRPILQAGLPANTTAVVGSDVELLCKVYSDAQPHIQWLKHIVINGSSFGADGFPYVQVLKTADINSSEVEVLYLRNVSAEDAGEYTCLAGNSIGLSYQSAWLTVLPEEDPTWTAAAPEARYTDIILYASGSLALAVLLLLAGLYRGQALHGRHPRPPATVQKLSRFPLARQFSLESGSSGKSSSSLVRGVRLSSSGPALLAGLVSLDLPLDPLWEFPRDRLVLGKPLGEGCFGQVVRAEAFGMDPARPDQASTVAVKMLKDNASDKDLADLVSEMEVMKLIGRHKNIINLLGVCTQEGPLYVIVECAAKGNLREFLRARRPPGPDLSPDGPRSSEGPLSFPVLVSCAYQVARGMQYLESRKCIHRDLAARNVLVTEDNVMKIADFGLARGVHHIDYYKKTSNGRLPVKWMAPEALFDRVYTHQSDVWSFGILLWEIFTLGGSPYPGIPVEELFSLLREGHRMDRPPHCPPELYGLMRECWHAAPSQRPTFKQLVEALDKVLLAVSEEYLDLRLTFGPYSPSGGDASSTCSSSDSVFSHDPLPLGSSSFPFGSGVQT

SMILES	IC50 (FGFR-4 kinase) [nM]	IC50 [1] [nM]	further results
C=CC(=O)Nc1cc(-c2cc3c(cn2)cc(-c2c(Cl)c(OC)cc(OC)c2Cl)c2nccn23)c(OC)cc1N1CC2COCC2C1 (stereo not shown) [Example 4, N-(5-(4-(2,6-dichloro-3,5-dimethoxyphenyl)imidazo[1,2-a][1,6]naphthyridin-8-yl)-4-methoxy-2-(tetrahydro-1H-furo[3,4-c]pyrrol-5(3H)-yl)phenyl)acrylamide]	2.25		
C=CC(=O)Nc1cc(-c2cc3c(cn2)cc(-c2c(Cl)c(OC)cc(OC)c2Cl)c2nccn23)c(OC)cc1N1CCOC2(CC2)C1 [Example 5, N-(5-(4-(2,6-dichloro-3,5-dimethoxyphenyl)imidazo[1,2-a][1,6]naphthyridin-8-yl)-4-methoxy-2-(4-oxa-7-azaspiro[2.5]octan-7-yl)phenyl)acrylamide]		20.3	
C=CC(=O)Nc1cc(-c2cc3c(cn2)cc(-c2c(Cl)c(OC)cc(OC)c2Cl)c2nccn23)c(OC)cc1N1CC2CCC(C1)N2C(C)=O [Example 7, N-(2-(8-acetyl-3,8-diazabicyclo[3 .2.1]octan-3-yl)-5-(4-(2,6-dichloro-3,5-dimethoxyphenyl)imidazo[1,2-a][1,6]naphthyridin-8-yl)-4-methoxyphenyl)acrylamide]	1.74	83.6	
C=CC(=O)Nc1cc(-c2cc3c(cn2)cc(-c2c(Cl)c(OC)cc(OC)c2Cl)c2nccn23)c(OC)cc1N1CCNC2(CC2)C1 [Example 9, N-(5-(4-(2,6-dichloro-3,5-dimethoxyphenyl)imidazo[1,2-a][1,6]naphthyridin-8-yl)-4-methoxy-2-(4,7-diazaspiro[2.5]octan-7-yl)phenyl)acrylamide trifluoroacetate]	2.43	74.7	
C=CC(=O)Nc1cc(-c2cc3c(cn2)cc(-c2c(Cl)c(OC)cc(OC)c2Cl)c2nccn23)c(OC)cc1N1CCN(C(C)=O)C2(CC2)C1 [Example 11, N-(2-(4-acetyl-4,7-diazaspiro[2.5]octan-7-yl)-5-(4-(2,6-dichloro-3,5-dimethoxyphenyl)imidazo[1,2-a][1,6]naphthyridin-8-yl)-4-methoxyphenyl)acrylamide]	3.82	68.3	
C=CC(=O)Nc1cc(-c2cc3c(cn2)cc(-c2c(Cl)c(OC)cc(OC)c2Cl)c2nccn23)c(OC)cc1N1CCC2(CC1)CCN(C1CC1)CC2 [Example 19, N-(2-(9-cyclopropyl-3,9-diazaspiro[5.5]undecan-3-yl)-5-(4-(2,6-dichloro-3,5-dimethoxyphenyl)imidazo[1,2-a][1,6]naphthyridin-8-yl)-4-methoxyphenyl)acrylamide]	5.79	71.7	
C=CC(=O)Nc1cc(-c2cc3c(cn2)cc(-c2c(Cl)c(OC)cc(OC)c2Cl)c2nccn23)c(OC)cc1N1CCC2(COC2)C1 [Example 20, N-(5-(4-(2,6-dichloro-3,5-dimethoxyphenyl)imidazo[1,2-a][1,6]naphthyridin-8-yl)-4-methoxy-2-(2-oxa-6-azaspiro[3.4]octan-6-yl)phenyl)acrylamide]	2.54		
C=CC(=O)Nc1cc(-c2cc3c(cn2)cc(-c2c(Cl)c(OC)cc(OC)c2Cl)c2nccn23)c(OC)cc1N1CCC2(CCN(C)C2)C1 (stereo not shown) [Example 22]	5.61		
C=CC(=O)Nc1cc(-c2cc3c(cn2)cc(-c2c(Cl)c(OC)cc(OC)c2Cl)c2nccn23)c(OC)cc1N1CCN(C)C2(CC2)C1 [Example 23, N-(5-(4-(2,6-dichloro-3,5-dimethoxyphenyl)imidazo[1,2-a][1,6]naphthyridin-8-yl)-4-methoxy-2-(4-methyl-4,7-diazaspiro[2.5]octan-7-yl)phenyl)acrylamide]	3.85	142	
CC#CC(=O)Nc1cc(-c2cc3c(cn2)cc(-c2c(Cl)c(OC)cc(OC)c2Cl)c2nccn23)c(OC)cc1N1C[C@@H]2C[C@H]1CO2 [Example 27, N-(2-((1S,4S)-2-oxa-5-azabicyclo[2.2.1]heptan-5-yl)-5-(4-(2,6-dichloro-3,5-dimethoxyphenyl)imidazo[1,2-a][1,6]naphthyridin-8-yl)-4-methoxyphenyl)but-2-ynamide]			AUC(0-inf) [2]: 1860 ng·h/mL; Cmax [2]: 452 ng/mL; Tmax [2]: 3.33 h; half-life ([2]; read-out: T1/2 (converted)): 2.73 h
C=CC(=O)Nc1cc(-c2cc3c(cn2)cc(-c2c(Cl)c(OC)cc(OC)c2Cl)c2nccn23)c(OC)cc1N1CCO[C@@H](C)C1 [Example 38, (S)-N-(5-(4-(2,6-dichloro-3,5-dimethoxyphenyl)imidazo[1,2-a][1,6]naphthyridin-8-yl)-4-methoxy-2-(2-methylmorpholino)phenyl)acrylamide]	5.07		
